Test results from ChEMBL document CHEMBL3044795, “Synthesis and biological evaluation of novel benzoquinones as potential antimicrobial agents” (2013).
Converted amounts (≈) assume the structure as drawn.

Columns and labels:
Assay type in all cases: functional
Bacillus subtilis [1] = assay: Antibacterial activity against Bacillus subtilis ATCC 6633 assessed as diamater of growth inhibition zone after 24 hr by agar cup diffusion method
Escherichia coli [2] = assay: Antibacterial activity against Escherichia coli ATCC 11775 assessed as diamater of growth inhibition zone after 24 hr by agar cup diffusion method
Pseudomonas aeruginosa [3] = assay: Antibacterial activity against Pseudomonas aeruginosa ATCC 10145 assessed as diamater of growth inhibition zone after 24 hr by agar cup diffusion method
Candida albicans [4] = assay: Antifungal activity against Candida albicans DSM 70014 assessed as diamater of growth inhibition zone after 48 hr by agar cup diffusion method
Staphylococcus aureus [5] = assay: Antibacterial activity against Staphylococcus aureus DSM 1104 assessed as growth inhibition after 24 hr by two fold serial dilution method; conditions: DSM 1104, 24 h
Bacillus subtilis [6] = assay: Antibacterial activity against Bacillus subtilis ATCC 6633 assessed as growth inhibition after 24 hr by two fold serial dilution method; conditions: ATCC 6633, 24 h
Escherichia coli [7] = assay: Antibacterial activity against Escherichia coli ATCC 11775 assessed as growth inhibition after 24 hr by two-fold serial dilution method; conditions: ATCC 11775, 24 h
Pseudomonas aeruginosa [8] = assay: Antibacterial activity against Pseudomonas aeruginosa ATCC 10145 assessed as growth inhibition after 24 hr by two-fold serial dilution method; conditions: ATCC 10145, 24 h
Pseudomonas aeruginosa [9] = assay: Ratio of Ampicillin MIC to compound MIC for Pseudomonas aeruginosa ATCC 10145
Pseudomonas aeruginosa [10] = assay: Antibacterial activity against Pseudomonas aeruginosa ATCC 10145 assessed as growth inhibition after 24 hr; conditions: ATCC 10145, 24 h
Candida albicans [11] = assay: Antifungal activity against Candida albicans DSM 70014 assessed as growth inhibition after 48 hr; conditions: DSM 70014, 48 h
Escherichia coli [12] = assay: Antibacterial activity against Escherichia coli ATCC 11775 assessed as growth inhibition after 24 hr; conditions: ATCC 11775, 24 h
Bacillus subtilis [13] = assay: Antibacterial activity against Bacillus subtilis ATCC 6633 assessed as growth inhibition after 24 hr; conditions: ATCC 6633, 24 h
Staphylococcus aureus [14] = assay: Antibacterial activity against Staphylococcus aureus DSM 1104 assessed as growth inhibition after 24 hr; conditions: DSM 1104, 24 h
Candida albicans [15] = assay: Antifungal activity against Candida albicans DSM 70014 assessed as growth inhibition after 48 hr by two-fold serial dilution method; conditions: DSM 70014, 48 h
Staphylococcus aureus [16] = assay: Antibacterial activity against Staphylococcus aureus DSM 1104 assessed as diamater of growth inhibition zone after 24 hr by agar cup diffusion method
Escherichia coli [17] = assay: Ratio of compound MIC to Ampicillin MIC for Escherichia coli ATCC 11775

Row | SMILES | MIC (Staphylococcus aureus [5]) | MIC (Bacillus subtilis [6]) | MIC (Escherichia coli [7]) | MIC (Pseudomonas aeruginosa [8]) | MIC (Candida albicans [15]) | diameter of the inhibition zone (DIZ) (Bacillus subtilis [1]) | diameter of the inhibition zone (DIZ) (Escherichia coli [2]) | diameter of the inhibition zone (DIZ) (Pseudomonas aeruginosa [3]) | diameter of the inhibition zone (DIZ) (Candida albicans [4]) | Ratio (Pseudomonas aeruginosa [9]) | MBC (Pseudomonas aeruginosa [10]) | MFC (Candida albicans [11]) | MBC (Escherichia coli [12]) | MBC (Bacillus subtilis [13]) | MBC (Staphylococcus aureus [14]) | diameter of the inhibition zone (DIZ) (Staphylococcus aureus [16]) | Ratio (Escherichia coli [17])
1 | COc1ccc(OC)c(/C=N/N=c2\scc(-c3cc(O)ccc3O)n2-c2ccc(Cl)cc2)c1 | 50 µg/mL (≈ 104 µM) | 50 µg/mL (≈ 104 µM) | 25 µg/mL (≈ 51.9 µM) | 50 µg/mL (≈ 104 µM) | 50 µg/mL (≈ 104 µM) | 15 mm | 18 mm | 16 mm | 13 mm | – | 50 µg/mL (≈ 104 µM) | 100 µg/mL (≈ 207 µM) | 50 µg/mL (≈ 104 µM) | 50 µg/mL (≈ 104 µM) | 100 µg/mL (≈ 207 µM) | 13 mm | –
2 | COc1ccc(/C=N/N=c2\scc(C3=CC(=O)C=CC3=O)n2-c2ccc(Cl)cc2)cc1 | 100 µg/mL (≈ 222 µM) | 100 µg/mL (≈ 222 µM) | 100 µg/mL (≈ 222 µM) | 100 µg/mL (≈ 222 µM) | 100 µg/mL (≈ 222 µM) | 15 mm | 16 mm | 16 mm | 14 mm | – | 100 µg/mL (≈ 222 µM) | 100 µg/mL (≈ 222 µM) | 100 µg/mL (≈ 222 µM) | 100 µg/mL (≈ 222 µM) | 100 µg/mL (≈ 222 µM) | 14 mm | –
3 | COc1ccc(OC)c(/C=N/N=c2\scc(C3=CC(=O)C=CC3=O)n2-c2ccccc2)c1 | 50 µg/mL (≈ 112 µM) | 50 µg/mL (≈ 112 µM) | 50 µg/mL (≈ 112 µM) | 50 µg/mL (≈ 112 µM) | 50 µg/mL (≈ 112 µM) | 15 mm | 14 mm | 14 mm | 15 mm | – | 50 µg/mL (≈ 112 µM) | 50 µg/mL (≈ 112 µM) | 50 µg/mL (≈ 112 µM) | 50 µg/mL (≈ 112 µM) | 50 µg/mL (≈ 112 µM) | 14 mm | –
4 | COc1ccc(/C=N/N=c2\scc(C3=CC(=O)C=CC3=O)n2-c2ccccc2)cc1 | 50 µg/mL (≈ 120 µM) | 50 µg/mL (≈ 120 µM) | 25 µg/mL (≈ 60.2 µM) | 50 µg/mL (≈ 120 µM) | 50 µg/mL (≈ 120 µM) | 15 mm | 16 mm | 15 mm | 15 mm | – | 50 µg/mL (≈ 120 µM) | 50 µg/mL (≈ 120 µM) | 50 µg/mL (≈ 120 µM) | 50 µg/mL (≈ 120 µM) | 50 µg/mL (≈ 120 µM) | 15 mm | –
5 | COc1cc(/C=N/N=c2\scc(C3=CC(=O)C=CC3=O)n2-c2ccc(Cl)cc2)ccc1O | 100 µg/mL (≈ 215 µM) | 100 µg/mL (≈ 215 µM) | 100 µg/mL (≈ 215 µM) | 50 µg/mL (≈ 107 µM) | 50 µg/mL (≈ 107 µM) | 14 mm | 16 mm | 15 mm | 15 mm | – | 100 µg/mL (≈ 215 µM) | 50 µg/mL (≈ 107 µM) | 100 µg/mL (≈ 215 µM) | 100 µg/mL (≈ 215 µM) | 100 µg/mL (≈ 215 µM) | 16 mm | –
6 | COc1ccc(/C=N/N=c2\scc(C3=CC(=O)C=CC3=O)n2-c2ccc(C)cc2)cc1 | 50 µg/mL (≈ 116 µM) | 50 µg/mL (≈ 116 µM) | 25 µg/mL (≈ 58.2 µM) | 12.5 µg/mL (≈ 29.1 µM) | 50 µg/mL (≈ 116 µM) | 14 mm | 16 mm | 15 mm | 14 mm | 4 | 25 µg/mL (≈ 58.2 µM) | 50 µg/mL (≈ 116 µM) | 50 µg/mL (≈ 116 µM) | 50 µg/mL (≈ 116 µM) | 50 µg/mL (≈ 116 µM) | 16 mm | 2

Now from value to molecule, other results behind:

Row | MIC (Staphylococcus aureus [5]) | MIC (Bacillus subtilis [6]) | MIC (Escherichia coli [7]) | MIC (Pseudomonas aeruginosa [8]) | MIC (Candida albicans [15]) | SMILES | diameter of the inhibition zone (DIZ) (Bacillus subtilis [1]) | diameter of the inhibition zone (DIZ) (Escherichia coli [2]) | diameter of the inhibition zone (DIZ) (Pseudomonas aeruginosa [3]) | diameter of the inhibition zone (DIZ) (Candida albicans [4]) | Ratio (Pseudomonas aeruginosa [9]) | MBC (Pseudomonas aeruginosa [10]) | MFC (Candida albicans [11]) | MBC (Escherichia coli [12]) | MBC (Bacillus subtilis [13]) | MBC (Staphylococcus aureus [14]) | diameter of the inhibition zone (DIZ) (Staphylococcus aureus [16]) | Ratio (Escherichia coli [17])
7 | 100 µg/mL (≈ 231 µM) | 12.5 µg/mL (≈ 28.8 µM) | 50 µg/mL (≈ 115 µM) | 12.5 µg/mL (≈ 28.8 µM) | 100 µg/mL (≈ 231 µM) | COc1ccc(/C=N/N=c2\scc(-c3cc(O)ccc3O)n2-c2ccccc2)cc1O | 15 mm | 24 mm | 12 mm | 14 mm | 4 | 25 µg/mL (≈ 57.7 µM) | 100 µg/mL (≈ 231 µM) | 50 µg/mL (≈ 115 µM) | 25 µg/mL (≈ 57.7 µM) | 100 µg/mL (≈ 231 µM) | 16 mm | –
8 | 25 µg/mL (≈ 55.9 µM) | 25 µg/mL (≈ 55.9 µM) | 25 µg/mL (≈ 55.9 µM) | 25 µg/mL (≈ 55.9 µM) | 12.5 µg/mL (≈ 27.9 µM) | COc1ccc(/C=N/N=c2\scc(-c3cc(O)ccc3O)n2-c2ccc(C)cc2)cc1O | 14 mm | 14 mm | 13 mm | 14 mm | 2 | 50 µg/mL (≈ 112 µM) | 25 µg/mL (≈ 55.9 µM) | 50 µg/mL (≈ 112 µM) | 50 µg/mL (≈ 112 µM) | 50 µg/mL (≈ 112 µM) | 16 mm | –
9 | 100 µg/mL (≈ 221 µM) | 50 µg/mL (≈ 111 µM) | 25 µg/mL (≈ 55.3 µM) | 50 µg/mL (≈ 111 µM) | 50 µg/mL (≈ 111 µM) | COc1ccc(/C=N/N=c2\scc(-c3cc(O)ccc3O)n2-c2ccc(Cl)cc2)cc1 | 14 mm | 14 mm | 12 mm | 15 mm | – | 50 µg/mL (≈ 111 µM) | 50 µg/mL (≈ 111 µM) | 50 µg/mL (≈ 111 µM) | 50 µg/mL (≈ 111 µM) | 100 µg/mL (≈ 221 µM) | 15 mm | –
10 | 50 µg/mL (≈ 112 µM) | 12.5 µg/mL (≈ 27.9 µM) | 12.5 µg/mL (≈ 27.9 µM) | 12.5 µg/mL (≈ 27.9 µM) | 25 µg/mL (≈ 55.9 µM) | COc1ccc(OC)c(/C=N/N=c2\scc(-c3cc(O)ccc3O)n2-c2ccccc2)c1 | 15 mm | 18 mm | 16 mm | 14 mm | – | 25 µg/mL (≈ 55.9 µM) | 50 µg/mL (≈ 112 µM) | 25 µg/mL (≈ 55.9 µM) | 25 µg/mL (≈ 55.9 µM) | 50 µg/mL (≈ 112 µM) | 16 mm | –
11 | 12.5 µg/mL (≈ 27.1 µM) | 12.5 µg/mL (≈ 27.1 µM) | 25 µg/mL (≈ 54.2 µM) | 25 µg/mL (≈ 54.2 µM) | 50 µg/mL (≈ 108 µM) | COc1ccc(OC)c(/C=N/N=c2\scc(-c3cc(O)ccc3O)n2-c2ccc(C)cc2)c1 | 17 mm | 17 mm | 14 mm | 14 mm | 2 | 50 µg/mL (≈ 108 µM) | 50 µg/mL (≈ 108 µM) | 50 µg/mL (≈ 108 µM) | 25 µg/mL (≈ 54.2 µM) | 25 µg/mL (≈ 54.2 µM) | 14 mm | –
